Measurements published in patent publication US6495569B1, “Imidazolidine compounds” (Millennium Pharmaceuticals, Inc., priority 2001, dated 2002).

These compounds were tested against T1, CXCR3 (Homo sapiens, UniProt P49682) (assay: CXCR3/IP-10 radioligand binding assay (125I-IP-10 competition on CXCR3.L1/2 cell membranes)). Details: test compound 10 μmol/L; 125I-labeled IP-10 0.05 to 0.2 nmol/L; CXCR3.L1/2 transfectant cell membranes; 60 min at room temperature.
T1 construct: expressed in transfected cells; membrane preparation
T1 sequence (P49682 1-368): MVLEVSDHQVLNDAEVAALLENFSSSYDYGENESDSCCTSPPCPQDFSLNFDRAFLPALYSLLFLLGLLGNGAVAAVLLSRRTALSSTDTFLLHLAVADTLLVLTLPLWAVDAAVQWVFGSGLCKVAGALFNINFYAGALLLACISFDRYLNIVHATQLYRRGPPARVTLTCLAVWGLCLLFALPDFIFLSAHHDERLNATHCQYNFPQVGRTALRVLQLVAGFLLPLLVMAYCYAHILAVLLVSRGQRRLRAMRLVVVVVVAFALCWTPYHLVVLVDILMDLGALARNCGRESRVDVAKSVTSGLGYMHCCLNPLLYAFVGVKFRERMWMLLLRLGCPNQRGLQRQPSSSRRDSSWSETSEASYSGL
Text: The activity of the compounds of the present invention can be assessed using a suitable assay, such as a receptor binding assay, a chemotaxis assays, an extracellular acidification assay or a calcium flux assay (see, for example, Hesselgesser et al., J. Biol. Chem. 273(25):15687-15692 (1998) and WO 98/02151). For example, as described herein, small organic molecule antagonists of CXCR3/IP-10 binding have been identified utilizing cells engineered to express recombinant human CXCR3 (CXCR3.L1/2) and which bind ^125I-IP10 and chemotax in response to IP-10, Mig or I-TAC. Specifically, a high through-put receptor binding assay, which monitors ^125I-IP10 binding to CXCR3.L1/2 cell membranes, was used to identify small molecule antagonists which block binding of IP-10, Mig or I-TAC to CXCR3.
CXCR3.L1/2 cells were pelleted by centrifugation and stored at −80° C.. The cells were lysed by thawing and resuspending at about 1.5×10^7 cells/ml in a hypotonic buffer (5 mmol/L HEPES (pH 7.2), 2 mmol/L EDTA, 10 μg/ml each leupeptin, aprotinin, and chymostatin, and 100 μg/ml PMSF (all from Sigma, St. Louis)). Nuclei and cellular debris was removed by centrifugation ([…], at 4° C.) for 10 min. The supernatant was transferred to chilled centrifuge tubes (Nalge, Rochester, N.Y.) and the membrane fraction was recovered by centrifugation (25,000 g at 4° C.) for 45 min. The membrane pellet was resuspended in freezing buffer (10 mM HEPES (pH 7.2), 300 mmol/L Sucrose, 5 μg/ml each of leupeptin, aprotinin, and chymostatin, and 10 μg/ml PMSF). The total protein concentration was determined using a coomassie blue staining protein concentration assay kit (BioRad). The membrane preparation was aliquoted and stored at −80° C. until time of use.
CXCR3/IP-10 binding was performed in 96-well polypropylene plates (Costar) in a final volume of 0.1 ml of HBB buffer (50 mmol/L Hepes pH 7.4, 1 mmol/L CaCl2, 5 mmol/L MgCl2, 0.02% sodium azide, 0.5% BSA (bovine serum albumin)) containing 1 to 5 μg of CXCR3.L1/2 transfectant cell membrane protein and 0.05 to 0.2 nmol/L ^125I-labeled IP-10 (NEN, Boston, Mass.). Competition binding experiments were performed by including variable concentrations of unlabeled IP-10 or test compound. Nonspecific binding was determined following the addition of a 250 nmol/L unlabelled IP-10. Samples were incubated for 60 min at room temperature, and bound and free tracer (^125I-IP10) were separated by filtration through 96-well GF/B filterplates (Packard) presoaked in 0.3% polyethyleneimine. The filters were washed in HBB further supplemented with 0.5 mol/L NaCl, dried, and the amount of bound radioactivity determined by liquid scintillation counting. The competition is presented as the percent specific binding as calculated by 100×[(S−B)/(T−B)], where S is the radioactivity bound for each sample, B is background binding, and T is total bound in the absence of competitors. Duplicates were used throughout the experiments.

Compound | % inhibition at 10 μmol/L [%]
1-{2-(3-Piperidinomethylbenzylthio)ethyl}-3-(1-acenaphthenyl)-2imidazolidinylidenepropanedinitrile [Compound 4] | 95
1-{2-(3-Piperidinomethylbenzylthio)ethyl}-3-(1-naphthoyl)-2-imidazolidinylidenepropanedinitrile [Compound 7] | 93
1-{2-(3-Piperidinomethylbenzylthio)ethyl}-3-(2,3-methylenedioxybenzyl)-2-imidazolidinylidenepropanedinitrile [Compound 6] | 84
1-{2-(3-Piperidinomethylbenzylthio)ethyl}-3-{1-(8-methylnaphthyl)methyl}-2-imidazolidinylidenepropanedinitrile [Compound 11] | 96
N#CC(C#N)=C1N(CCSCc2cccc(CN3CCCCC3)c2)CCN1Cc1cccc2ccccc12 [Compound 1, 1-{2-(3-Piperidinomethylbenzylthio)ethyl}-3-(1-naphthylmethyl)-2-imidazolidinylidenepropanedinitrile] | 108
N#CC(C#N)=C1N(CCSCc2ccc(CN3CCCCC3)cc2)CCN1Cc1cccc2ccccc12 [Compound 2, 1-{2-(4-Piperidinomethylbenzylthio)ethyl}-3-(1-naphthylmethyl)-2-imidazolidinylidenepropanedinitrile] | 94
Cc1cccc(CN2CCN(CCSCc3cccc(CN4CCCCC4)c3)C2=C(C#N)C#N)c1C [Compound 3, 1-{2-(3-Piperidinomethylbenzylthio)ethyl}-3-(2,3-dimethylbenzyl)-2-imidazolidinylidenepropanedinitrile] | 91
N#CC(C#N)=C1N(CCCc2ccccc2)CCN1CCSCc1cccc(CN2CCCCC2)c1 [Compound 10, 1-{2-(3-Piperidinomethylbenzylthio)ethyl}-3-(3-phenylpropyl)-2-imidazolidinylidenepropanedinitrile] | 86
